We go through 53 compounds from ChEMBL document CHEMBL1122106, “Quantitative structure-activity relationship by distance geometry: quinazolines as dihydrofolate reductase inhibitors” (J Med Chem, 1982).

The assay deals with Dihydrofolate reductase (Enterococcus faecium).
`Oc1nc(S)nc2ccc(Sc3ccc4ccccc4c3)cc12`: the -Delta G was 6.2 kcal/mol.

As for `CCOC(=O)c1ccc(CNc2ccc3nc(N)nc(O)c3c2C)cc1`, the -Delta G was 7.1 kcal/mol. For the compound `Cc1c(CNc2ccc(C(=O)O)cc2)ccc2nc(N)nc(N)c12`, the -Delta G came out at 11.8 kcal/mol. For `Nc1nc(N)c2cc(CNc3ccc(C(=O)O)cc3)ccc2n1` the value was 13 kcal/mol; for `Nc1nc(O)c2c(Sc3ccc4ccccc4c3)cccc2n1`, 7.4 kcal/mol; for `Nc1nc(O)c2cc(S(=O)(=O)c3ccc4ccccc4c3)ccc2n1`, 9.6 kcal/mol.

In turn, `Nc1ncnc2ccc(S(=O)(=O)c3ccc4ccccc4c3)cc12` displayed a -Delta G of 5.8 kcal/mol. `Nc1nc(O)c2c(S(=O)(=O)c3ccc4ccccc4c3)cccc2n1` gave a -Delta G of 9 kcal/mol. For `Nc1nc(N)c2cc(S(=O)(=O)c3ccc4ccccc4c3)ccc2n1` the value was 12.4 kcal/mol; for `O=c1[nH]c(=S)c2cc(Sc3ccc4ccccc4c3)ccc2[nH]1`, 6.8 kcal/mol. For `Nc1ncnc2ccc([S+]([O-])c3ccc4ccccc4c3)cc12` (stereo not drawn) the value was 7.2 kcal/mol; for `Nc1nc(S)c2cc(Sc3ccc4ccccc4c3)ccc2n1`, 9.3 kcal/mol; for `Sc1nc(S)c2cc(Sc3ccc4ccccc4c3)ccc2n1`, 6 kcal/mol.

For `Nc1nc(N)c2cc(S(=O)(=O)c3ccc(Cl)c(Cl)c3)ccc2n1`, the -Delta G turned out to be 13.4 kcal/mol. For `CCCCOC(=O)c1ccc(NCc2ccc3nc(N)nc(N)c3c2Cl)cc1` the value was 11.4 kcal/mol; for `Nc1ncnc2ccc(Sc3ccc4ccccc4c3)cc12`, 6.5 kcal/mol; for `Nc1nc(O)c2cc([S+]([O-])c3ccc4ccccc4c3)ccc2n1` (stereo not drawn), 8.2 kcal/mol. For `Nc1nc(N)c2c([S+]([O-])c3ccc4ccccc4c3)cccc2n1` (stereo not drawn) the value was 6.9 kcal/mol; for `Nc1nc(O)c2cc(Sc3ccc(Cl)c(Cl)c3)ccc2n1`, 9.1 kcal/mol; for `Nc1nc(O)c2cc(CNc3ccc(C(=O)O)cc3)ccc2n1`, 8.8 kcal/mol. In turn, `CCCCOC(=O)c1ccc(NCc2ccc3nc(N)nc(N)c3c2C)cc1` returned a -Delta G of 12.1 kcal/mol.

Regarding `Nc1nc(N)c2c(/C=C\c3ccc4ccccc4c3)cccc2n1`, the -Delta G was determined as 11.1 kcal/mol.

Regarding `Nc1nc(O)nc2ccc(Sc3ccc4ccccc4c3)cc12`, the -Delta G was 6.9 kcal/mol.

`Nc1nc(N)c2c(CCc3ccc4ccccc4c3)cccc2n1` displayed a -Delta G of 11.9 kcal/mol. Regarding `Nc1nc(N)c2c([S+]([O-])c3ccc(Cl)c(Cl)c3)cccc2n1` (stereo not drawn), the -Delta G came out at 7.3 kcal/mol. For `Cc1c(CNc2ccc(C(=O)NC(CC(=O)O)C(=O)O)cc2)ccc2nc(N)nc(N)c12` (stereo not drawn) the value was 12.7 kcal/mol; for `Nc1nc(N)c2c(/C=C/c3ccc4ccccc4c3)cccc2n1`, 10.7 kcal/mol.

As to `Nc1nc(N)c2c(Sc3ccc4ccccc4c3)cccc2n1`, the -Delta G was found to be 10.9 kcal/mol. The compound `Nc1nc(N)c2cc([S+]([O-])c3ccc4ccccc4c3)ccc2n1` (stereo not drawn) showed a -Delta G of 12.8 kcal/mol. Next, `Nc1nc(O)c2cc(S(=O)(=O)c3ccc(Cl)c(Cl)c3)ccc2n1`: 8.2 kcal/mol; `Nc1nc(N)c2c(CSc3ccc(Cl)cc3)cccc2n1`: 10.9 kcal/mol; `CCOC(=O)c1ccc(NCc2ccc3nc(N)nc(N)c3c2)cc1`: 11.4 kcal/mol. As to `CCOC(=O)c1ccc(NCc2ccc3nc(N)nc(O)c3c2)cc1`, the -Delta G amounted to 10.6 kcal/mol. Next, `CCCCOC(=O)c1ccc(NCc2ccc3nc(N)nc(N)c3c2)cc1`: 11.2 kcal/mol. In turn, `CCOC(=O)c1ccc(CNc2ccc3nc(N)nc(N)c3c2C)cc1` yielded a -Delta G of 13.1 kcal/mol. Next, `Nc1nc(N)c2c(Sc3ccc(Cl)c(Cl)c3)cccc2n1`: 9.9 kcal/mol. Next, `Nc1nc(N)c2cc(Sc3ccc(Cl)c(Cl)c3)ccc2n1`: 12.2 kcal/mol; `Nc1nc(O)c2cc(NCc3ccc(C(=O)O)cc3)ccc2n1`: 7.2 kcal/mol; `CCOC(=O)c1ccc(CNc2ccc3nc(N)nc(O)c3c2)cc1`: 8.6 kcal/mol.

As for `Cc1c(NCc2ccc(C(=O)O)cc2)ccc2nc(N)nc(O)c12`, the -Delta G was found to be 6.5 kcal/mol.

Consider `CCOC(=O)c1ccc(CNc2ccc3nc(N)nc(N)c3c2Cl)cc1`, for which the -Delta G was 12.2 kcal/mol.

In turn, `CCOC(=O)c1ccc(NCc2ccc3nc(N)nc(N)c3c2C)cc1` registered a -Delta G of 12.3 kcal/mol. For `Nc1nc(O)c2cc(Sc3ccc4ccccc4c3)ccc2n1` the value was 10.2 kcal/mol; for `CCOC(=O)c1ccc(CNc2ccc3nc(N)nc(O)c3c2Cl)cc1`, 9.3 kcal/mol. With `Nc1nc(S)nc2ccc(Sc3ccc4ccccc4c3)cc12`, the -Delta G came to 7.4 kcal/mol. As for `Nc1nc(N)c2cc(Sc3cccc(C(F)(F)F)c3)ccc2n1`, the -Delta G stood at 13.4 kcal/mol.

On to `O=c1[nH]c(=O)c2cc(Sc3ccc4ccccc4c3)ccc2[nH]1`, for which the -Delta G worked out at 6.9 kcal/mol. In turn, `Nc1nc(N)c2c(S(=O)(=O)c3ccc(Cl)c(Cl)c3)cccc2n1` displayed a -Delta G of 9 kcal/mol. Next, `CCOC(=O)c1ccc(NCc2ccc3nc(N)nc(N)c3c2Cl)cc1`: 12.8 kcal/mol.

The compound `Nc1nc(S)c2cc(S(=O)(=O)c3ccc4ccccc4c3)ccc2n1` came in with a -Delta G of 8 kcal/mol.

`Nc1nc(N)c2c(S(=O)(=O)c3ccc4ccccc4c3)cccc2n1` displayed a -Delta G of 6.5 kcal/mol.

Compound `CCOC(=O)c1ccc(CNc2ccc3nc(N)nc(N)c3c2)cc1` returned a -Delta G of 11 kcal/mol.

In turn, `Nc1nc(N)c2c(Cl)c(CNc3ccc(C(=O)O)cc3)ccc2n1` displayed a -Delta G of 12.3 kcal/mol.
